Earlier results as cited in patent US12070440B2, “Topical formulations of nitroglycerin” (PERMEATUS, INC., priority 2022, dated 2024).
Where two headings read alike, the source gives them in different places.

**Q.** With `O=[N+]([O-])OCC(CO[N+](=O)[O-])O[N+](=O)[O-]` [nitroglycerin, 1,2,3-trinitroxypropane] as the molecule, how does the “decomposition by denitration to 1,2-GDN” value (acidic environment (0.1N HCl)) read?
**A.** The value was “faster”.

**Q.** And the “decomposition by denitration to 1,2-GDN” value (pH 7.4)?
**A.** Its value is “slow”.

**Q.** And the “decomposition by denitration to 1,2-GDN” value (pH values of 11 and above)?
**A.** Its value is “rapid”.
